Molecules are shown by their SMILES.

Sequence of recombinant human ROCK-1 (Q13464 whole entry): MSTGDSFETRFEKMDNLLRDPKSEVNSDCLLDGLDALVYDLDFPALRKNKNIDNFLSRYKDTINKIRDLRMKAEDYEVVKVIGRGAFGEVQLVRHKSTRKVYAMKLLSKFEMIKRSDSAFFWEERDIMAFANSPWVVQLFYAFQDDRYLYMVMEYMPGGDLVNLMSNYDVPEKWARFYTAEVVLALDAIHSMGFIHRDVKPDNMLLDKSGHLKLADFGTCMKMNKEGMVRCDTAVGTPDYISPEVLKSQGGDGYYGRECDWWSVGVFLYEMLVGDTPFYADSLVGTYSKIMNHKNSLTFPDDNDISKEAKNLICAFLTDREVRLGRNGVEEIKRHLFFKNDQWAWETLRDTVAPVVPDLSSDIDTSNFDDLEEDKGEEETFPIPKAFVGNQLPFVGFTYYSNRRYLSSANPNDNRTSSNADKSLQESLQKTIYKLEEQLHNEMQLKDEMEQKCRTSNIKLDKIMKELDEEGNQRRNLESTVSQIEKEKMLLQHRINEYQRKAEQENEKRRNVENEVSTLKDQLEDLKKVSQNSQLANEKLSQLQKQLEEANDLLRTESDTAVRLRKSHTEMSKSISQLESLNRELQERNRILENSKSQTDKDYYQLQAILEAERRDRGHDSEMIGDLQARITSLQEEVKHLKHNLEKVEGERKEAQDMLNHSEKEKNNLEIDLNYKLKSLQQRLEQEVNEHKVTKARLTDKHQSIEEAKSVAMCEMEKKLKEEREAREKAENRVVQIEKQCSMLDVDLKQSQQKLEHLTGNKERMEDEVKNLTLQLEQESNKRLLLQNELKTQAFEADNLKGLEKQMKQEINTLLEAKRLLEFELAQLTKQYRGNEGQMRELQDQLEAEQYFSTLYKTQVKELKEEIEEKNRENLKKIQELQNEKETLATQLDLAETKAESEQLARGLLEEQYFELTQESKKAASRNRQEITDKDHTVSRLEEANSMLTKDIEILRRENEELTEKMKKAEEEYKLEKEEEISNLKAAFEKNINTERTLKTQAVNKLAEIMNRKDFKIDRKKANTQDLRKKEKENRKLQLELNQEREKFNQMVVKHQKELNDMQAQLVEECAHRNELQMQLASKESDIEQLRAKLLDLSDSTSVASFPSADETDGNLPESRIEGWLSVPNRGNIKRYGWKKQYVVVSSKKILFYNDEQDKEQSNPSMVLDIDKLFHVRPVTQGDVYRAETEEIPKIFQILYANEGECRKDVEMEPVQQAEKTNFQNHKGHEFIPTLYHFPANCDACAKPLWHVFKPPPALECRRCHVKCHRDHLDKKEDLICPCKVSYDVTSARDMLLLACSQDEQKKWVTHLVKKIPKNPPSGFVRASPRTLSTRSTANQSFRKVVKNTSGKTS

The target in the first assay is recombinant human ROCK-1 (Homo sapiens, UniProt Q13464). Nature of the assay: In-vitro inhibitory activity on recombinant human ROCK-1 (IMAP fluorescence polarisation, fluorescein-labelled peptide). Particulars: read-out: ROCK-I pIC50 (converted). The assay is classed as biochemical. The method, then:
In-Vitro Determination of Inhibitory Activity of Compounds of the Invention on Recombinant Human ROCK-1
10 μl of a 0.1 ng/μl solution of recombinant human ROCK-1 in assay buffer containing 2 mM dithiothreitol, is then added to each well, yielding a final test compound concentration of 10 μM. Following a one hour incubation at room temperature in the dark, enzyme activity is detected by adding 60 μl of IMAP binding reagent (Molecular Devices) to each well.
On to `Nc1nccc2cc(OC3CCCN(Cc4ccc[nH]4)C3)ccc12` (stereo not drawn) [Example 7F, 6-[1-(1H-Pyrrol-2-ylmethyl)piperidin-3-yloxy]isoquinolin-1-ylamine], for which the IC50 is 126 nM.

As to `Nc1nccc2cc(OC3CCCN(Cc4cccs4)C3)ccc12` (stereo not drawn) [Example 7G, 6-(1-Thiophen-2-ylmethylpiperidin-3-yloxy)isoquinolin-1-ylamine], the IC50 was 251 nM.

As to `Cc1ccc(CN2CCC[C@H](Oc3ccc4c(N)nccc4c3)C2)cc1` [Example 8B, (S)-6-[1-(4-Methylbenzyl)piperidin-3-yloxy]isoquinolin-1-ylamine], the IC50 is 158 nM.

Turning to `Nc1nccc2cc(SC3CCCNC3)ccc12` (stereo not drawn) [Example 12, 6-(Piperidin-3-ylsulfanyl)isoquinolin-1-ylamine], the IC50 was 501 nM.

Turning to `Nc1nccc2cc(S[C@H]3CCNC3)ccc12` [Example 13A, (S)-6-(Pyrrolidin-3-ylsulfanyl)isoquinolin-1-ylamine], the IC50 is 631 nM.

Consider `Nc1nccc2cc(S[C@@H]3CCNC3)ccc12` [Example 13B, (R)-6-(Pyrrolidin-3-ylsulfanyl)isoquinolin-1-ylamine], for which the IC50 is 631 nM.

As to `Nc1nccc2cc(SC3CCNCC3)ccc12` [Example 13C, 6-(Piperidin-4-ylsulfanyl)isoquinolin-1-ylamine], the IC50 is 631 nM.

For the compound `Cc1cc2c(N)nccc2cc1OC1CCCN(Cc2ccccc2)C1` (stereo not drawn) [Example 19A], the IC50 was 794 nM.

For the compound `Nc1nccc2cc(OC3CCCN(CCOc4ccccc4)C3)ccc12` (stereo not drawn) [Example 21, 6-[1-(2-Phenoxyethyl)piperidin-3-yloxy]isoquinolin-1-ylamine], the IC50 is 200 nM.

With `CC(c1ccccc1)N1CCC[C@H](Oc2ccc3c(N)nccc3c2)C1` (stereo partly drawn) [Example 21G, (S)-6-[1-(1-Phenylethyl)piperidin-3-yloxy]isoquinolin-1-ylamine], the IC50 was 200 nM.

On to `COc1ccc(CN2CCCC(Oc3ccc4c(=O)[nH]ccc4c3)C2)cc1` (stereo not drawn) [Example 23D, 6-[1-(4-Methoxybenzyl)piperidin-3-yloxy]-2H-isoquinolin-1-one], for which the IC50 was 398 nM.

As to `O=c1[nH]ccc2cc(SC3CCNCC3)ccc12` [Example 25, 6-(Piperidin4-ylsulfanyl)-2H-isoquinolin-1-one], the IC50 is 200 nM.

On to `O=c1[nH]cc(Br)c2cc(O[C@H]3CCCNC3)ccc12` [Example 29], for which the IC50 is 316 nM.

As for `O=c1[nH]ccc2cc(OC3CCN(Cc4ccco4)CC3)ccc12` [Example 30E, 6-(1-Furan-2-ylmethylpiperidin-4-yloxy)-2H-isoquinolin-1-one], the IC50 was 501 nM.

As to `CN1CCC(Oc2ccc3c(=O)[nH]ccc3c2)CC1` [Example 30G, 6-(1-Methylpiperidin-4-yloxy)-2H-isoquinolin-1-one], the IC50 is 631 nM.

In the case of `O=c1[nH]ccc2cc(OC3CCN(CCCO)CC3)ccc12` [Example 31C, 6-[1-(3-Hydroxypropyl)piperidin-4-yloxy]-2H-isoquinolin-1-one], the IC50 was 794 nM.

Turning to `O=c1[nH]ccc2cc(OC3CCN(CCO)CC3)ccc12` [Example 31E, 6-[1-(2-Hydroxyethyl)piperidin-4-yloxy]-2H-isoquinolin-1-one], the IC50 is 794 nM.

As for `COc1cccc(CN2CCC(Oc3ccc4c(=O)[nH]ccc4c3)CC2)c1` [Example 31F, 6-[1-(3-Methoxybenzyl)piperidin-4-yloxy]-2H-isoquinolin-1-one], the IC50 is 398 nM.

For `O=c1[nH]ccc2cc(OC3CCN(Cc4ccc[nH]4)CC3)ccc12` [Example 31G, 6-[1-(1 H-Pyrrol-2-ylmethyl)piperidin-4-yloxy]-2H-isoquinolin-1-one], the IC50 is 316 nM.

`O=C(CN1CCC[C@H](Oc2ccc3c(=O)[nH]ccc3c2)C1)c1ccccc1` [Example 32B, (S)-6-[1-(2-Oxo-2-phenylethyl)piperidin-3-yloxy]-2H-isoquinolin-1-one]: the IC50 was 501 nM.

As for `O=c1[nH]ccc2cc(O[C@H]3CCCN(CCOc4ccccc4)C3)ccc12` [Example 32C, (S)-6-[1-(2-Phenoxyethyl)piperidin-3-yloxy]-2H-isoquinolin-1-one], the IC50 was 631 nM.

With `O=c1[nH]ccc2cc(O[C@@H]3CCCN(CCOc4ccccc4)C3)ccc12` [Example 32E, (R)-6-[1-(2-Phenoxyethyl)piperidin-3-yloxy]-2H-isoquinolin-1-one], the IC50 is 251 nM.

With `O=c1[nH]ccc2cc(OC3CCCN(CC4CCCCC4)C3)ccc12` (stereo not drawn) [Example 33C, 6-(1-Cyclohexylmethylpiperidin-3-yloxy)-2H-isoquinolin-1-one], the IC50 is 501 nM.

Staying with this assay, now noted: recombinant human ROCK-1, dose response curve; IC50 = concentration causing 50% inhibition of the enzymatic activity.
Consider `Cc1ccc(CN2CCC(Oc3ccc4c(=O)[nH]ccc4c3)CC2)cc1` [Example 30A, 6-[1-(4-Methylbenzyl)piperidin-4-yloxy]-2H-isoquinolin-1-one], for which the “ROCK-I pIC50” value stood at 6.1.

The values are drawn from patent US7618985B2 (N.V. Organon, priority 2005, dated 2009).
